Values of other authors in patent US20070031367A1, “Composition and method for neck skin firming” (priority 2004, published 2007).

COc1cc(CNC(=O)CCCC/C=C/C(C)C)ccc1O [Capsaicin, N-canillyl-8-methyl-6-(E)-noneamide]
Solubility in fats, oils and alcohol (fats, oils and alcohol): very soluble | Solubility in water (water): sparingly soluble
